Where “and” joins values, the source holds several entries; their conditions need not be identical. Equal entries are not always repeated. Toxic doses and inconclusive results are not listed.
System: P388 leukemia ip, CD2F1 mice, survival T/C
Assay: NCI In Vivo Anticancer Drug Screen. Data for tumor model P388 Leukemia (intraperitoneal) in CD2F1 (CDF1) mice
Conditions: endpoint: median survival time, higher = longer survival
How it was run: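 Mice carrying the transplanted tumor received test compound or vehicle. Survival was recorded in each group, and the value is the treated-group measurement divided by that of the vehicle-treated control group.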

[1] = dose: 50.0 mg/kg/injection, schedule: Q01DX009 (ip), vehicle: saline with Tween-80
[2] = dose: 100.0 mg/kg/injection, schedule: Q01DX009 (ip), vehicle: saline with Tween-80
[3] = dose: 50.0 mg/kg/injection, schedule: Q01DX005 (ip), vehicle: Klucel (hydroxypropylcellulose) (HPC)
[4] = dose: 100.0 mg/kg/injection, schedule: Q01DX005 (ip), vehicle: Klucel (hydroxypropylcellulose) (HPC)
[5] = dose: 50.0 mg/kg/injection, schedule: Q01DX005 (ip), vehicle: saline with Tween-80
[6] = dose: 100.0 mg/kg/injection, schedule: Q01DX005 (ip), vehicle: saline with Tween-80
[7] = dose: 200.0 mg/kg/injection, schedule: Q01DX005 (ip), vehicle: saline with Tween-80
[8] = dose: 200.0 mg/kg/injection, schedule: Q01DX009 (ip), vehicle: saline with Tween-80
[9] = dose: 12.5 mg/kg/injection, schedule: Q01DX009 (ip), vehicle: saline
[10] = dose: 25.0 mg/kg/injection, schedule: Q01DX009 (ip), vehicle: saline
[11] = dose: 50.0 mg/kg/injection, schedule: Q01DX009 (ip), vehicle: saline
[12] = dose: 6.25 mg/kg/injection, schedule: Q01DX009 (ip), vehicle: saline

## CC(=O)c1c(OCC(O)CN2CCCCC2)ccc2c(C)cc(=O)oc12 (configuration not stated)
dose: 100.0 mg/kg/injection, schedule: Q04DX002 (ip), vehicle: saline with Tween-80
  T/C: 100 % of control
dose: 200.0 mg/kg/injection, schedule: Q04DX002 (ip), vehicle: saline with Tween-80
  T/C: 101 % of control

## COc1ccc(NC(=O)NNC(N)=S)cc1
[1]
  T/C: 96 % of control
[2]
  T/C: 91 % of control

## COC(=O)c1nnn(-c2ccccc2)n1
dose: 25.0 mg/kg/injection, schedule: Q01DX005 (ip), vehicle: Klucel (hydroxypropylcellulose) (HPC)
  T/C: 99 % of control
[3]
  T/C: 101 % of control
[4]
  T/C: 101 % of control

## COCCn1c(=N)c(C(=O)OC)nc2c3ccccc3ccc21
[5]
  T/C: 104 % of control
[6]
  T/C: 107 % of control
[7]
  T/C: 101 % of control

## COc1ccccc1NC(=O)C1=C(C)NC(C)=C(C(=O)Nc2ccccc2C)C1c1ccccc1 (configuration not stated)
dose: 60.0 mg/kg/injection, schedule: Q01DX005 (ip), vehicle: saline with Tween-80
  T/C: 100 % of control
dose: 120.0 mg/kg/injection, schedule: Q01DX005 (ip), vehicle: saline with Tween-80
  T/C: 104 % of control
dose: 240.0 mg/kg/injection, schedule: Q01DX005 (ip), vehicle: saline with Tween-80
  T/C: 89 % of control

## CCN(C(=O)CNCC(C)C)c1ccc(C)c(Cl)c1
dose: 50.0 mg/kg/injection, schedule: Q01DX005 (ip), vehicle: saline
  T/C: 100 % of control
dose: 100.0 mg/kg/injection, schedule: Q01DX005 (ip), vehicle: saline
  T/C: 99 % of control

## CCCCCCCCCCCC(=O)N(CCOC(=O)c1ccco1)CCOC(=O)c1ccco1
[1]
  T/C: 108 % of control
[2]
  T/C: 91 % of control
[8]
  T/C: 87 % of control

## C=CC(=O)Oc1ccccc1/C=C/C(=O)CCCCCC
[5]
  T/C: 98 % of control
[6]
  T/C: 107 % of control
[7]
  T/C: 105 % of control

## COC(=O)c1ccc(CSc2ccccc2NC(=S)Nc2cccc(C(F)(F)F)c2)o1
dose: 6.25 mg/kg/injection, schedule: Q01DX005 (ip), vehicle: saline with Tween-80
  T/C: 104 % of control
dose: 12.5 mg/kg/injection, schedule: Q01DX005 (ip), vehicle: saline with Tween-80
  T/C: 100 % of control
dose: 25.0 mg/kg/injection, schedule: Q01DX005 (ip), vehicle: saline with Tween-80
  T/C: 98 % of control

## O=C(O)c1ccnc2ccc3ccccc3c12
[5]
  T/C: 93 % of control
[6]
  T/C: 109 % of control
[7]
  T/C: 118 % of control

## NC(=O)C1CCCN1C(=O)C1CCCN(Cc2ccc(CN3CCCC(C(=O)N4CCCC4C(N)=O)C3)cc2)C1 (configuration not stated)
dose: 60.0 mg/kg/injection, schedule: Q01DX005 (ip), vehicle: saline
  T/C: 106 % of control
dose: 120.0 mg/kg/injection, schedule: Q01DX005 (ip), vehicle: saline
  T/C: 97 % of control

## NC(=O)N(CCO)/N=C/C=C/c1ccc([N+](=O)[O-])o1
[3]
  T/C: 106 % of control
[4]
  T/C: 115 % of control
dose: 200.0 mg/kg/injection, schedule: Q01DX005 (ip), vehicle: Klucel (hydroxypropylcellulose) (HPC)
  T/C: 108 % of control

## O=C(c1ccc(Cl)cc1)n1c(Cl)c(/C=N\Nc2ccc([N+](=O)[O-])cc2[N+](=O)[O-])c2ccccc21
dose: 12.5 mg/kg/injection, schedule: Q01DX001 (ip), vehicle: Klucel (hydroxypropylcellulose) (HPC)
  T/C: 92 % of control
dose: 25.0 mg/kg/injection, schedule: Q01DX001 (ip), vehicle: Klucel (hydroxypropylcellulose) (HPC)
  T/C: 96 % of control
dose: 50.0 mg/kg/injection, schedule: Q01DX001 (ip), vehicle: Klucel (hydroxypropylcellulose) (HPC)
  T/C: 88 % of control

## CC1SCC(=O)N1c1nncs1 (configuration not stated)
dose: 30.0 mg/kg/injection, schedule: Q01DX005 (ip), vehicle: Klucel (hydroxypropylcellulose) (HPC)
  T/C: 101 % of control and 104 % of control
dose: 60.0 mg/kg/injection, schedule: Q01DX005 (ip), vehicle: Klucel (hydroxypropylcellulose) (HPC)
  T/C: 102 % of control and 106 % of control
dose: 120.0 mg/kg/injection, schedule: Q01DX005 (ip), vehicle: Klucel (hydroxypropylcellulose) (HPC)
  T/C: 106 % of control and 123 % of control
dose: 240.0 mg/kg/injection, schedule: Q01DX005 (ip), vehicle: Klucel (hydroxypropylcellulose) (HPC)
  T/C: 123 % of control
dose: 480.0 mg/kg/injection, schedule: Q01DX005 (ip), vehicle: Klucel (hydroxypropylcellulose) (HPC)
  T/C: 162 % of control

## CC1=NN(c2ccc(S(=O)(=O)O)cc2)C(=O)/C1=C/c1ccc(Cl)cc1
dose: 50.0 mg/kg/injection, schedule: Q04DX003 (ip), vehicle: saline sonified
  T/C: 100 % of control
dose: 100.0 mg/kg/injection, schedule: Q04DX003 (ip), vehicle: saline sonified
  T/C: 100 % of control
dose: 200.0 mg/kg/injection, schedule: Q04DX003 (ip), vehicle: saline sonified
  T/C: 95 % of control

## Oc1[nH]c2ccccc2c1N=NC(=S)SCc1ccccc1
[9]
  T/C: 89 % of control
[10]
  T/C: 87 % of control
[11]
  T/C: 90 % of control

## CS(=O)(=O)OCCN(CCOS(C)(=O)=O)c1ccc(/C=N/Nc2ncnc3nc[nH]c23)cc1
[1]
  T/C: 172 % of control
dose: 66.0 mg/kg/injection, schedule: Q04DX003 (ip), vehicle: saline with Tween-80
  T/C: 177 % of control
[2]
  T/C: 181 % of control
dose: 100.0 mg/kg/injection, schedule: Q04DX003 (ip), vehicle: saline with Tween-80
  T/C: 177 % of control
dose: 150.0 mg/kg/injection, schedule: Q04DX003 (ip), vehicle: saline with Tween-80
  T/C: 195 % of control

## CC(/C=N\Nc1ccc(Cl)cc1)=N/NC(=S)NCC(C)C
dose: 100.0 mg/kg/injection, schedule: Q01DX001 (ip), vehicle: saline with Tween-80
  T/C: 103 % of control
dose: 200.0 mg/kg/injection, schedule: Q01DX001 (ip), vehicle: saline with Tween-80
  T/C: 100 % of control
dose: 400.0 mg/kg/injection, schedule: Q01DX001 (ip), vehicle: saline with Tween-80
  T/C: 94 % of control

## CCN(CCCl)c1ccccc1
dose: 3.12 mg/kg/injection, schedule: Q01DX009 (ip), vehicle: saline
  T/C: 105 % of control
[12]
  T/C: 106 % of control
[9]
  T/C: 116 % of control
[10]
  T/C: 106 % of control and 115 % of control

## COC(=O)C1(c2ccccc2)OP2(N(C)C)(OCCN2C)OC1(C(=O)OC)c1ccccc1 (configuration not stated)
[5]
  T/C: 104 % of control
[6]
  T/C: 98 % of control
[7]
  T/C: 91 % of control

## CCN(CC)CCCC(C)Nc1cc(/C=C/c2ccc(Cl)cc2)nc2cc(N(C)C)ccc12 (configuration not stated)
dose: 3.12 mg/kg/injection, schedule: Q01DX009 (ip), vehicle: Klucel (hydroxypropylcellulose) (HPC)
  T/C: 107 % of control
dose: 6.25 mg/kg/injection, schedule: Q01DX009 (ip), vehicle: Klucel (hydroxypropylcellulose) (HPC)
  T/C: 110 % of control
dose: 12.5 mg/kg/injection, schedule: Q01DX009 (ip), vehicle: Klucel (hydroxypropylcellulose) (HPC)
  T/C: 98 % of control and 102 % of control

## CC(=O)Nc1ccc(N=Nc2c(C)nn(C(=N)N)c2C)cc1
[12]
  T/C: 100 % of control and 103 % of control
[9]
  T/C: 108 % of control and 109 % of control and 93 % of control
[10]
  T/C: 114 % of control
[11]
  T/C: 123 % of control
dose: 50.0 mg/kg/injection, schedule: Q04DX003 (ip), vehicle: saline
  T/C: 98 % of control
dose: 100.0 mg/kg/injection, schedule: Q04DX003 (ip), vehicle: saline
  T/C: 110 % of control
dose: 200.0 mg/kg/injection, schedule: Q04DX003 (ip), vehicle: saline
  T/C: 122 % of control
dose: 300.0 mg/kg/injection, schedule: Q04DX003 (ip), vehicle: saline
  T/C: 121 % of control

## N=C(N)SCC(=O)Nc1nc(NC(=O)CSC(=N)N)nc(NC(=O)CSC(=N)N)n1
dose: 100.0 mg/kg/injection, schedule: Q04DX002 (ip), vehicle: saline
  T/C: 101 % of control
dose: 200.0 mg/kg/injection, schedule: Q04DX002 (ip), vehicle: saline
  T/C: 99 % of control
dose: 400.0 mg/kg/injection, schedule: Q04DX002 (ip), vehicle: saline
  T/C: 100 % of control

## CCN(CC)c1nc(N(CC)CC)nc(N(CC)CC)n1
dose: 25.0 mg/kg/injection, schedule: Q01DX009 (ip), vehicle: saline with Tween-80
  T/C: 102 % of control
[1]
  T/C: 104 % of control
[2]
  T/C: 104 % of control
[8]
  T/C: 104 % of control

From PubChem BioAssay AID330 (DTP/NCI, 2004)
